Where two headings read alike, the source gives them in different places.
Tests used:
[1] = target: human orexin-2 receptor (Homo sapiens (Human), UniProt O43614); assay: Intracellular calcium measurement (FLIPR), CHO cells expressing human orexin-2 receptor, 3 nM orexin-A; assay type: cell-based; conditions: read-out: IC50 OX2
Procedure, shortened: (§1)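 CHO transfectants were dye-loaded (fluo-4 AM, probenecid) and exposed to antagonist for 120 min ahead of agonist.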

[2] = target: orexin-1 (Homo sapiens (Human), UniProt O43613); assay: Intracellular calcium measurement (FLIPR), CHO cells expressing human orexin-1 receptor, 3 nM orexin-A; assay type: cell-based; conditions: read-out: IC50 OX1
Sequence of orexin-1 (O43613 whole entry): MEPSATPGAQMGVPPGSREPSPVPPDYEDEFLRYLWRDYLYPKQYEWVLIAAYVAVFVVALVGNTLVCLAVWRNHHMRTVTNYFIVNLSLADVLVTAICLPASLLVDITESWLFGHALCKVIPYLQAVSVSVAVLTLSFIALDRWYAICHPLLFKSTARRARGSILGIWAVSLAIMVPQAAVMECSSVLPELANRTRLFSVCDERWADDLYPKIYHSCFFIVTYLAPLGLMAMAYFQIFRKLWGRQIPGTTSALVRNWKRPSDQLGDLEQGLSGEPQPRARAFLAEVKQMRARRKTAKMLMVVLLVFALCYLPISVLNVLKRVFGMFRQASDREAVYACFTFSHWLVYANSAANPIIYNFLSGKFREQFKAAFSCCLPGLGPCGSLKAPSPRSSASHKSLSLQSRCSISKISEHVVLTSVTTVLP
Procedure, shortened: as §1

[3] = CHO cells expressing human orexin-2 receptor, FLIPR, 3 nM orexin-A, geometric mean if determined several times
[4] = CHO cells expressing human orexin-1 receptor, FLIPR, 3 nM orexin-A, geometric mean if determined several times

Sequence of human orexin-2 receptor (O43614 whole entry): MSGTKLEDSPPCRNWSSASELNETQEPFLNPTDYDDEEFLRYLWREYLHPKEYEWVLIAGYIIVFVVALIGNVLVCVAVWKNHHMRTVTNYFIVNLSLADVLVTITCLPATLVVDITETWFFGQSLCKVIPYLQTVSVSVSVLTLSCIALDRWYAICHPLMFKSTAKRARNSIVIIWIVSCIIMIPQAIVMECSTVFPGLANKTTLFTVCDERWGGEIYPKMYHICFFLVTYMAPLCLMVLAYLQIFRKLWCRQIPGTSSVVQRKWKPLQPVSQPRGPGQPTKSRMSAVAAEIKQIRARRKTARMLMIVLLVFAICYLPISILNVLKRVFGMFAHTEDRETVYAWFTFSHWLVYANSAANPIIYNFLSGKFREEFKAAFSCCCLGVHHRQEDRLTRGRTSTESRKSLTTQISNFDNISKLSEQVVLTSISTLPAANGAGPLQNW

Row | Molecule | IC50 [1, 3] [nM] | IC50 [2, 4] [nM] | IC50 [2] [nM] | IC50 [1] [nM]
1 | COc1cc(C(=O)N2CCC[C@H]2c2noc(-c3cccc(C)c3C)n2)c(-n2nccn2)cc1Cl [compound 406] | 2 | 22 |  | 
2 | Cc1ccc(-n2nccn2)c(C(=O)N2CCC[C@H]2c2nnc(-c3cccc(F)c3C)[nH]2)c1 [compound 494, {(S)-2-[5-(3-Fluoro-2-methyl-phenyl)-4H-[1,2,4]triazol-3-yl]-pyrrolidin-1-yl}-(5-methyl-2-[1,2,3]triazol-2-yl-phenyl)-methanone] | 27 | 847 |  | 
3 | Cc1ccc(-n2nccn2)c(C(=O)N2CCC[C@@]2(C)c2nnc(-c3cccc(Cl)c3C)[nH]2)c1 [compound 550] | 178 | 272 |  | 
4 | COc1c(F)cccc1-c1noc([C@@H]2CCCN2C(=O)c2cccc(Cl)c2-n2nccn2)n1 [compound 297] | 478 |  | 690 | 
5 | {(S)-2-[3-(3-Chloro-phenyl)-[1,2,4]oxadiazol-5-yl]-pyrrolidin-1-yl}-furan-3-yl-methanone [Reference compound 5, reference compound] | 554 | 403 |  | 
6 | COc1cc(C(=O)N2CCC[C@H]2c2noc(-c3cccc(F)c3OC)n2)c(-n2nccn2)cc1Cl [compound 368] | 1 | 11 |  | 
7 | CCOc1c(F)cccc1-c1nc([C@@H]2CCCN2C(=O)c2cc(Cl)c(C)cc2-n2nccn2)no1 [compound 366] | 3 | 5 |  | 
8 | Cc1ccc(-c2ccccc2)c(C(=O)N2CCC[C@@]2(C)c2nnc(-c3cccc(Cl)c3C)[nH]2)c1 [compound 556] | 857 | 870 |  | 
9 | Cc1cc(C)cc(-c2noc([C@@H]3CCCN3C(=O)c3cc(C)ccc3-n3nccn3)n2)c1 [compound 11, {(S)-2-[3-(3,5-Dimethyl-phenyl)-[1,2,4]oxadiazol-5-yl]-pyrrolidin-1-yl}-(5-methyl-2-[1,2,3]triazol-2-yl-phenyl)-methanone] | 6 | 58 |  | 
10 | COc1c(F)cccc1-c1nc([C@@H]2CCCN2C(=O)c2ccc(Cl)cc2-n2nccn2)no1 [compound 378] |  | 30 |  | 2
11 | Cc1ccc(-n2nccn2)c(C(=O)N2CCC[C@H]2c2nc(-c3cccc(Cl)c3C)no2)c1 [compound 23] | 7 | 40 |  | 
12 | COc1cc(C(=O)N2CCC[C@H]2c2nc(-c3cccc(Cl)c3C)no2)c(-n2nccn2)cc1F [compound 130] | 16 | 188 |  | 
13 | Cc1cc(C(=O)N2CCC[C@@]2(C)c2nnc(-c3cccc(Cl)c3C)[nH]2)c(-n2nccn2)cc1C [compound 553] | 6 | 14 |  | 
14 | CCc1ccccc1-c1nc([C@@H]2CCCN2C(=O)c2cc(OC)c(Cl)cc2-n2nccn2)no1 [compound 407] | 3 | 15 |  | 
15 | COc1cc(C)cc(-c2nc([C@@H]3CCCN3C(=O)c3ccc(Cl)cc3-n3nccn3)no2)c1 [compound 418] | 25 |  | 85 | 
16 | Cc1ccc(-n2nccn2)c(C(=O)N2CCC[C@H]2c2nc(-c3ccnc(Cl)c3)no2)c1 [compound 73] | 1160 | 3480 |  | 

More lines, main results first:

Row | IC50 [1, 3] [nM] | IC50 [2, 4] [nM] | Molecule | IC50 [2] [nM] | IC50 [1] [nM]
17 | 151 | 258 | Cc1cc(F)cc(C(=O)N2CCC[C@H]2c2nc(-c3ccccc3OC(F)(F)F)no2)c1-n1nccn1 [compound 176, (5-Fluoro-3-methyl-2-[1,2,3]triazol-2-yl-phenyl)-{(S)-2-[3-(2-trifluoromethoxy-phenyl)-[1,2,4]oxadiazol-5-yl]-pyrrolidin-1-yl}-methanone] |  | 
18 | 148 | 160 | CCOc1ncccc1-c1noc([C@@H]2CCCN2C(=O)c2cc(OC)c(OC)cc2-n2nccn2)n1 [compound 226, (4,5-Dimethoxy-2-[1,2,3]triazol-2-yl-phenyl)-{(S)-2-[3-(2-ethoxy-pyridin-3-yl)-[1,2,4]oxadiazol-5-yl]-pyrrolidin-1-yl}-methanone] |  | 
19 | 5 | 9 | CCOc1c(F)cccc1-c1noc([C@@H]2CCCN2C(=O)c2cc(C)c(C)cc2-n2nccn2)n1 [compound 290, (4,5-Dimethyl-2-[1,2,3]triazol-2-yl-phenyl)-{(S)-2-[3-(2-ethoxy-3-fluoro-phenyl)-[1,2,4]oxadiazol-5-yl]-pyrrolidin-1-yl}-methanone] |  | 
20 | 46 | 169 | CCOc1ncccc1-c1noc([C@@H]2CCCN2C(=O)c2nc(C)ccc2-n2nccn2)n1 [compound 213, {(S)-2-[3-(2-Ethoxy-pyridin-3-yl)-[1,2,4]oxadiazol-5-yl]-pyrrolidin-1-yl}-(6-methyl-3-[1,2,3]triazol-2-yl-pyridin-2-yl)-methanone] |  | 
21 | 4 | 27 | COc1c(F)cccc1-c1nc([C@@H]2CCCN2C(=O)c2ccc(C)cc2-n2nccn2)no1 [compound 338, {(S)-2-[5-(3-Fluoro-2-methoxy-phenyl)-[1,2,4]oxadiazol-3-yl]-pyrrolidin-1-yl}-(4-methyl-2-[1,2,3]triazol-2-yl-phenyl)-methanone] |  | 
22 | 69 | 26 | COc1ccccc1-c1nnc([C@@H]2CCCN2C(=O)c2cc(C)c(C)cc2-n2nccn2)[nH]1 [compound 466, (4,5-Dimethyl-2-[1,2,3]triazol-2-yl-phenyl)-{(S)-2-[5-(2-methoxy-phenyl)-4H-[1,2,4]triazol-3-yl]-pyrrolidin-1-yl}-methanone] |  | 
23 | 5 | 174 | Cc1c(F)cccc1-c1noc([C@@H]2CCCN2C(=O)c2cccc(F)c2-c2ccn[nH]2)n1 [compound 253, {(S)-2-[3-(3-Fluoro-2-methyl-phenyl)-[1,2,4]oxadiazol-5-yl]-pyrrolidin-1-yl}-[3-fluoro-2-(2H-pyrazol-3-yl)-phenyl]-methanone] |  | 
24 | 46 | 216 | Cc1ccc(-n2nccn2)c(C(=O)N2CCC[C@H]2c2nc(-c3cccc(C(F)(F)F)c3C)no2)c1 [compound 54, (5-Methyl-2-[1,2,3]triazol-2-yl-phenyl)-{(S)-2-[3-(2-methyl-3-trifluoromethyl-phenyl)-[1,2,4]oxadiazol-5-yl]-pyrrolidin-1-yl}-methanone] |  | 
25 | 0.5 | 1 | CCOc1ncccc1-c1nc([C@@H]2CCCN2C(=O)c2cc(C)c(C)cc2-n2nccn2)no1 [compound 331, (4,5-Dimethyl-2-[1,2,3]triazol-2-yl-phenyl)-{(S)-2-[5-(2-ethoxy-pyridin-3-yl)-[1,2,4]oxadiazol-3-yl]-pyrrolidin-1-yl}-methanone] |  | 
26 | 25 | 182 | Cc1ccc(-n2nccn2)c(C(=O)N2CCC[C@H]2c2nc(-c3cccc4c3OCO4)no2)c1 [compound 52, [(S)-2-(3-Benzo[1,3]dioxol-4-yl-[1,2,4]oxadiazol-5-yl)-pyrrolidin-1-yl]-(5-methyl-2-[1,2,3]triazol-2-yl-phenyl)-methanone] |  | 
27 | 207 | 258 | Cc1ccc(-n2nccn2)c(C(=O)N2CCC[C@H]2c2noc(-c3ccccc3)n2)c1 [Example 302, (5-Methyl-2-[1,2,3]triazol-2-yl-phenyl)-[(S)-2-(5-phenyl-[1,2,4]oxadiazol-3-yl)-pyrrolidin-1-yl]-methanone] |  | 
28 | 51 | 359 | Cc1ccc(-n2nccn2)c(C(=O)N2CCC[C@H]2c2cc(-c3ccccc3)on2)c1 [compound 430, (5-Methyl-2-[1,2,3]triazol-2-yl-phenyl)-[(S)-2-(5-phenyl-isoxazol-3-yl)-pyrrolidin-1-yl]-methanone] |  | 
29 | 10 | 4 | Cc1ccc(-n2nccn2)c(C(=O)N2CCC[C@H]2c2cc(-c3ccccc3OC(F)(F)F)no2)c1 [compound 425, (5-Methyl-2-[1,2,3]triazol-2-yl-phenyl)-{(S)-2-[3-(2-trifluoromethoxy-phenyl)-isoxazol-5-yl]-pyrrolidin-1-yl}-methanone] |  | 
30 | 2 | 6 | Cc1ccc(C(=O)N2CCC[C@H]2c2ncc(-c3ccccc3OC(F)(F)F)[nH]2)c(-n2nccn2)c1 [compound 517, (4-Methyl-2-[1,2,3]triazol-2-yl-phenyl)-{(S)-2-[5-(2-trifluoromethoxy-phenyl)-1H-imidazol-2-yl]-pyrrolidin-1-yl}-methanone] |  | 
31 | 4 | 16 | CCOc1c(F)cccc1-c1nc([C@@H]2CCCN2C(=O)c2ccc(C)cc2-n2nccn2)no1 [compound 328, {(S)-2-[5-(2-Ethoxy-3-fluoro-phenyl)-[1,2,4]oxadiazol-3-yl]-pyrrolidin-1-yl}-(4-methyl-2-[1,2,3]triazol-2-yl-phenyl)-methanone] |  | 
32 | 50 | 57 | CCOc1ncccc1-c1nnc([C@@H]2CCCN2C(=O)c2cc(C)ccc2-n2nccn2)[nH]1 [compound 496, {(S)-2-[5-(2-Ethoxy-pyridin-3-yl)-4H-[1,2,4]triazol-3-yl]-pyrrolidin-1-yl}-(5-methyl-2-[1,2,3]triazol-2-yl-phenyl)-methanone] |  | 
33 | 3 | 18 | CCOc1ncccc1-c1noc([C@@H]2CCCN2C(=O)c2cc(OC)c(C)cc2-n2nccn2)n1 [compound 215, {(S)-2-[3-(2-Ethoxy-pyridin-3-yl)-[1,2,4]oxadiazol-5-yl]-pyrrolidin-1-yl}-(5-methoxy-4-methyl-2-[1,2,3]triazol-2-yl-phenyl)-methanone] |  | 
34 | 10 | 409 | COc1cc(C(=O)N2CCC[C@H]2c2nc(-c3cccc(F)c3OC)no2)c(-n2nccn2)cc1F [compound 206, {(S)-2-[3-(3-Fluoro-2-methoxy-phenyl)-[1,2,4]oxadiazol-5-yl]-pyrrolidin-1-yl}-(4-fluoro-5-methoxy-2-[1,2,3]triazol-2-yl-phenyl)-methanone] |  | 
35 | 97 | 315 | CCc1ncccc1-c1noc([C@@H]2CCCN2C(=O)c2cc(C)ccc2-n2nccn2)n1 [compound 53, {(S)-2-[3-(2-Ethyl-pyridin-3-yl)-[1,2,4]oxadiazol-5-yl]-pyrrolidin-1-yl}-(5-methyl-2-[1,2,3]triazol-2-yl-phenyl)-methanone] |  | 

— patent US9493446B2, “Orexin receptor antagonists which are [ortho bi-(hetero-)aryl]-[2-(meta bi-(hetero-)aryl)-pyrrolidin-1-yl]-methanone derivatives” (Actelion Pharmaceuticals Ltd, priority 2012, dated 2016)
